Test results taken from patent US11324216B2, “Methods for controlling root parasitic weeds: inhibitors of seed germination in Striga” (King Abdullah University of Science and Technology, priority 2017, dated 2022).
Where two headings read alike, the source gives them in different places.

Columns and labels:
ShHTL7 [1] = target: T1, ShHTL7 (Striga hermonthica, UniProt A0A0M3PNA2); details: read-out: Kd of ShHTL7 and GR24
ShHTL7 [2] = target: T1, ShHTL7; details: A. thaliana line expressing ShHTL7; cited from earlier work
ShHTL7 [3] = target: T1, ShHTL7; assay: Yoshimulactone Green (YLG) hydrolysis analysis; assay type: biochemical; details: for IC50: pre-incubation 30 min, 1 μM YLG 60 min
Experimental: (§1) For measuring the hydrolysis of YLG in vitro, 10 μg of purified ShHTL7, AtD14 and OsD14 in a reaction buffer (1×PBS) containing 0.1% dimethyl sulfoxide (DMSO) in a total volume of 100 μL in 96-well black plate (Greiner) were used. To measure the fluorescent intensity, SpectraMax i3 (Molecular Devices) with an excitation wavelength of 480 nm and a detection wavelength of 520 nm were used. Purified proteins were mixed with Triton X-100, using serial dilutions with concentrations ranging from 5 μM to 4.87 nM. Proteins were pre-incubated with Tritone X-100 for 30 min, followed by incubation with 1 μM YLG (Tokyo Chemical Industry Co. Ltd., product number E1238) for 60 min. Fluorescence values measured in the void control were subtracted from those obtained in the presence of protein. Curves and IC50 values were plotted using Graph pad (PRISM 6) four-parameter logistic curve.

ShHTL7 [4] = target: T1, ShHTL7; assay: Intrinsic Triton X-100 fluorescence binding assay
Experimental: cDNA fragments, encoding the S. hermonthica ShHTL7 or the mutated version S95C (in which the serine in the active triad was changed to cysteine) flanked with BamHI and XhoI restriction sites, were cloned into the pGEX-6P1 (GE Healthcare) expression vector that enables the expression of GST fusion protein, using the corresponding restriction sites, as shown in Table 1 below. The plasmid obtained was then transformed into BL21 (DE3) E. coli cells. Cells were grown in LB medium at 37° C., and protein expression was induced at OD 0.6 at λ=600 nm by adding 150 μM isopropyl β-D-1-thiogalactopyranoside (IPTG). After induction, cultures were grown at 16° C. overnight under shaking. […]
(§2) Purified proteins (at concentrations of 1 nm to 5 μM) were incubated with 1.54 μM of Triton X-100 for 2 h. Since Triton X-100 has an excitation and emission wavelength of 275 nm and 302 nm, fluorescence was measured at the corresponding wavelengths using SpectraMax i3 (Molecular Devices). […] Data were normalized to the background fluorescence from the protein and values obtained in absence of proteins were subtracted, to determine changes in Triton X-100 fluorescence intensity. Kd values were determined by plotting changes in Triton X-100 fluorescence intensity against the concentration of the protein, using the single binding site model implemented in Graph pad (PRISM 6).

AtD14 [5] = target: T2, AtD14 (Arabidopsis thaliana, UniProt Q9SQR3); assay: Intrinsic Triton X-100 fluorescence binding assay; design: species or system A. thaliana; details: AtD14 concentrations up to 10 μM
T2 construct: made in house
T2 sequence (Q9SQR3 1-267): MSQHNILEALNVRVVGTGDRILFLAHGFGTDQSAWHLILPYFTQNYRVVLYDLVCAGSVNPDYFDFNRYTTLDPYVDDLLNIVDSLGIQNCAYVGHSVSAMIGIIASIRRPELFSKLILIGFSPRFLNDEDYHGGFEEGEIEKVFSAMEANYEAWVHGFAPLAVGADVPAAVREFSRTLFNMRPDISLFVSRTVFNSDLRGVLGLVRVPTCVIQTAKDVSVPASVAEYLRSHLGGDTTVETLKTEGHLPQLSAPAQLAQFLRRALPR
Experimental: as §2, with “Since” for “Purified proteins (at concentrations of 1 nm to 5 μM) were incubated with 1.54 μM of Triton X-100 for 2 h. Since”

OsD14 [6] = target: T3, OsD14 (Oryza sativa subsp. japonica, UniProt Q10QA5); assay: Intrinsic Triton X-100 fluorescence binding assay; design: species or system rice; details: OsD14 concentrations up to 10 μM
T3 construct: made in house
T3 sequence (Q10QA5 1-318): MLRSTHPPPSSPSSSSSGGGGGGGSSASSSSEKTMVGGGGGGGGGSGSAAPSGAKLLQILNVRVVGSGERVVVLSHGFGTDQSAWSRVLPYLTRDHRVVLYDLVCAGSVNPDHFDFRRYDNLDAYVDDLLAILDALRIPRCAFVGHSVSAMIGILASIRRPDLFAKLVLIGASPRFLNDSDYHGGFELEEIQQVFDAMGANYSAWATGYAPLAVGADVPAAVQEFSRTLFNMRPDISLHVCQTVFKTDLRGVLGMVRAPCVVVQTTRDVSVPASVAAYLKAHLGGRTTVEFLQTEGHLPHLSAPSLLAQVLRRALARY
Experimental: as §2, with “Since” for “Purified proteins (at concentrations of 1 nm to 5 μM) were incubated with 1.54 μM of Triton X-100 for 2 h. Since”

AtD14 [7] = target: T2, AtD14; assay: Yoshimulactone Green (YLG) hydrolysis analysis; assay type: biochemical, A. thaliana
Experimental: as §1, with “Purified proteins were mixed with Triton X-100, using serial dilutions with concentrations ranging from 5 μM to 4.87 nM.” left out

OsD14 [8] = target: T3, OsD14; assay: Yoshimulactone Green (YLG) hydrolysis analysis; assay type: biochemical, rice
Experimental: as §1, with “Purified proteins were mixed with Triton X-100, using serial dilutions with concentrations ranging from 5 μM to 4.87 nM.” left out

ShHTL7 L143Y mutant = assay: Yoshimulactone Green (YLG) hydrolysis analysis; assay type: biochemical, Striga hermonthica
ShHTL7 [9] = target: T1, ShHTL7; assay: Differential static light scattering (DSLS), aggregation temperature; assay type: binding; details: following pre-incubation; varying Triton concentrations
Experimental: The specific aggregation temperature, Tagg, was determined using DSLS on the Stargazer system (Harbinger Biotechnology and Engineering Corporation, Markham, Canada). For this purpose, purified protein (1 mg/mL) was overlaid with mineral oil in a clear bottom 384-well black plate (Corning), and temperature was increased from 20 to 95° C. with a ratio of 1° C./min. A CCD camera was used to detect light scattering every 0.5° C. in the presence or absence of varying concentrations of Triton X-100, unraveling X-100 concentration-dependent changes in aggregation temperature (ShHTL7 ΔTagg). Data were normalized, and ΔTagg was plotted against the Triton X-100 concentration. Resulting data were plotted to determine the change in Tagg of ShHTL7 upon binding to Triton X-100 using Graph pad (PRISM 6).

Striga hermonthica seeds = assay: Striga hermonthica germination assay (GR24-induced); assay type: in vivo
Experimental: Striga hermonthica germination bioassays were carried out using Striga seeds collected from a Sorghum bicolor field in Sudan. About 50-100 dry Striga washed and sterilized seeds were distributed on a 9-mm diameter glass fiber filter paper discs (Sartorius, Goettingen Germany). Discs were then placed in 9-cm diameter petri-dishes (12 discs per petri-dish) on filter paper (Whatman, Maidstone, UK) moistened with 3 mL sterilized water. The petri-dishes were sealed with parafilm, wrapped with aluminum foil and incubated in growth chambers at 30° C. for 10 days for preconditioning. On the 11th day, discs were air dried in laminar flow cabinet and transferred to 9-cm petri-dishes (four discs in each plate), which contained 9-mm diameter glass fiber filter paper rings, moistened with 900 μL sterile MilliQ water. The pre-conditioned Striga seeds were treated with Triton X-100 at concentrations of 15.4 μM (0.001%) and 1.54 μM (0.0001%) along with GR24 at 1 nM, 0.5 nM, 0.25 nM and 0.125 nM respectively. Triton X-100/GR24 mixtures were applied (50 μl per disc) in four replicates. Corresponding volumes of GR24 and sterile MilliQ water were included as positive and negative control, respectively. The petri-dishes were sealed with parafilm, enfolded with aluminum foil and incubated for 48 h at 30° C. The germinated (seeds with radicle emerging through the seed coat) and non-germinated Striga seeds were recorded under a binocular and germination percentage was calculated.

[10] = test system: rice seeds cv. Nipponbare; assay type: in vivo; details: Striga germination vs rice growth
Experimental: The rice seeds cv. Nipponbare were surface-sterilized using 50 ml (2.5%) sodium hypochlorite with 0.4% of Tween-20 for 15 min. After six subsequent washing steps with sterilized water, the rice seeds were kept in water at 30° C. for overnight imbibition. About 2 ml of dilutions of Triton X-100 at 15.4 μM, 1.54 μM in sterile MilliQ water (control) was added in 24-well plates with six replications. One sterilized rice seed was put in each well and allowed to germinate for 48 h at 30° C. The germinated (radicle emergence) and non-germinated seeds were recorded and germination percentage was calculated. Then same seeds were allowed to grow under light in growth cabinet for another one week. The length of one week old seedlings was measured with a roller and averaged.

T1 sequence (A0A0M3PNA2 entry or part of it): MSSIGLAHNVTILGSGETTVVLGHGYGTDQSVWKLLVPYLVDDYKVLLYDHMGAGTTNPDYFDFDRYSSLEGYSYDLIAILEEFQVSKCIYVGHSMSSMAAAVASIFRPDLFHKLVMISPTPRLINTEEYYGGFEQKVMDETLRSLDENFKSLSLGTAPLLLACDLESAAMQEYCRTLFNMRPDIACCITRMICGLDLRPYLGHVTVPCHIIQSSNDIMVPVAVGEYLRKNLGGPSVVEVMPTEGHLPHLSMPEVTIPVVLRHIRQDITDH

CC1=C[C@H](O/C=C2/C(=O)O[C@@H]3c4ccccc4C[C@H]23)OC1=O [GR24]
Kd (ShHTL7 [1]): 440 nM
GR24 concentration triggering germination (ShHTL7 [2]): picomolar concentrations

CC(C)(C)CC(C)(C)c1ccc(OCC(=O)O)cc1 [2-[4-(2,4,4-trimethylpentan-2-yl)phenoxy]acetic acid]
Inhibitory effect on ShHTL7 catalyzed hydrolysis of YLG (ShHTL7 [3]; in words): clear inhibitory effect
IC50 (ShHTL7 [3]): 1500 ± 410 nM

CC(C)(C)CC(C)(C)c1ccc(OCCOCCO)cc1 [4-ter-octylphenol diethoxylate]
IC50 (ShHTL7 [3]): 7500 ± 2100 nM

CC(C)(C)CC(C)(C)c1ccc(OCCO)cc1 [4-ter-octylphenol Monoethoxylate]
IC50 (ShHTL7 [3]): 9200 ± 3200 nM

polyethylene glycol tert-octylphenyl ether [Triton X-100]
Affinity of Triton for ShHTL7 relative to GR24 (ShHTL7 [4]; Kd 31 nM vs Kd 440 nM): about ten times higher affinity
Kd (ShHTL7 [4]; following pre-incubation 2 h or more, intrinsic Triton fluorescence, read-out: Kd between Triton and ShHTL7): 31 nM
Change in Triton fluorescence with AtD14 (AtD14 [5]): No change in Triton fluorescence
Change in Triton fluorescence with OsD14 (OsD14 [6]): No change in Triton fluorescence
IC50 (ShHTL7 [3]): 470 ± 110 nM
Inhibition of YLG hydrolysis by AtD14 (AtD14 [7]; 10 μM Triton): around 10%
Effect on YLG hydrolysis by AtD14 (AtD14 [7]; up to 0.5 μM Triton): did not affect
Inhibition of YLG hydrolysis by OsD14 (OsD14 [8]; 10 μM Triton): around 10%
Effect on YLG hydrolysis by OsD14 (OsD14 [8]; up to 0.5 μM Triton): did not affect
Inhibition of YLG hydrolysis by ShHTL7 L143Y mutant (ShHTL7 L143Y mutant): failed to inhibit
Aggregation temperature (Tagg) of ShHTL7 (ShHTL7 [9]): aggregation temperature increases in a Triton concentration-dependent manner
Inhibition of GR24-induced S. hermonthica germination (Striga hermonthica seeds; 1.54 μM Triton X-100): significantly inhibiting
Inhibition of GR24-induced S. hermonthica germination (Striga hermonthica seeds; 15.4 μM Triton X-100): significantly inhibiting
Inhibition of S. hermonthica germination (Striga hermonthica seeds; maximum inhibition): up to 90%
Triton concentrations inhibiting S. hermonthica germination relative to concentrations that affect rice growth [10]: five orders of magnitude lower
